From US11279079B2, “Cell electrochemical sensor based on 3D printing technology and application thereof” (Jiangnan University, priority 2020, dated 2022)

How the values were obtained:
[1] = pigs, in vivo; cited from earlier work
[2] = system: lung adenocarcinoma epithelial cells A549; assay: Cell electrochemical sensor (3D-printed A549/carbon nanofiber/GelMA on screen-printed carbon electrode), EIS cytotoxicity and combination index evaluation; format: cell-based, human; details: for IC50 value measured by the EIS method: A549 cell sensor of example 1, 24 hours toxin stimulation, single toxin or combined effect; for impedance value of the cell sensor with increasing dose: concentration range of 0.1-5 μg/mL, 24 hours
Experimental: In an embodiment of the disclosure, the cell sensor needs to be incubated before application, and specific operations comprise: dropping a DMEM cell culture medium at a working electrode of a screen-printed carbon electrode to ensure that the culture medium can cover a cell/carbon nanofiber/GelMA complex on the working electrode to provide cells with nutrients needed for growth, and then placing the working electrode in an incubator with the carbon dioxide concentration of 5% and the humidity of 95% for incubation at 37° C. for 6-12 hours; after incubation, removing the original culture medium on the working electrode, diluting toxin standard substances with the DMEM cell culture medium into gradient concentration solutions, dropping the gradient concentration solutions on the working electrode printed with cells, and then carrying out electrochemical detection after placing the working electrode in the incubator for effect for 24 hours.
In an embodiment of the disclosure, the method uses a modified screen-printed carbon electrode as a sensing interface, a PET material is used as a substrate, the working electrode is composed of carbon, the reference electrode is composed of silver/silver chloride, the counter electrode is composed of carbon, electrochemical detection adopts electrochemical impedance spectroscopy (EIS) to test electrical signal changes of cells stimulated by toxins, the initial potential is 0.2 V, and the frequency range is 1 Hz-10^5 Hz.
In an embodiment of the disclosure, the electrochemical AC impedance method (EIS) measures the signals obtained by the electrochemical sensor stimulated by different concentrations of toxins, the impedance value is calculated by fitting the equivalent circuit with Zview software, the cell viability inhibition rates of different concentrations of toxins are calculated, and the calculation method is as follows: […]
(1) Drug stimulation: An original culture medium on a working electrode is removed, toxin standard substances are diluted with a DMEM cell culture medium into gradient concentration solutions, and then 150 μL of DON toxin solutions in the concentration range of 0.1, 0.2, 0.5, 1, 2 and 5 μg/mL, 150 μL of 15-ADON toxin solutions in the concentration range of 0.1, 0.2, 0.5, 1, 2 and 5 μg/mL and 150 μL of DON+15-ADON toxin solutions in the concentration range of 0.1+0.1, 0.2+0.2, 0.5+0.5, 1+1, 2+2 and 5+5 μg/mL are taken and dropped on the working electrode printed with cells respectively, the working electrode is placed in an incubator for effect for 24 hours, and corresponding impedance values are measured. […]

Structure (SMILES) | conversion into DON in blood [1] | IC50 value measured by the EIS method [2] [µg/mL] | impedance value of the cell sensor with increasing dose [2]
CC(=O)O[C@@H]1C[C@]2(C)[C@@]3(CO)[C@H](O)C(=O)C(C)=C[C@H]3O[C@H]1[C@@]21CO1 [3-ADON] | quickly converted into DON |  | 
CC(=O)OC[C@]12[C@H](O)C(=O)C(C)=C[C@H]1O[C@@H]1[C@H](O)C[C@@]2(C)[C@]12CO2 [15-ADON, 15-acetyl-deoxynivalenol] |  | 1.2560 | gradually reduced
CC1=C[C@H]2O[C@@H]3[C@H](O)C[C@](C)([C@@]2(CO)[C@H](O)C1=O)[C@]31CO1 [DON, deoxynivalenol] |  | 0.9281 | gradually reduced
